Test results reported in publication PMC8433837, “(+)-Usnic Acid as a Promising Candidate for a Safe and Stable Topical Photoprotective Agent” (Molecules, 2021).
Like-named read-outs stand apart in the source and are kept apart here.

What was measured:
[1] = skin-PAMPA permeability assay; format: in vitro ADME; conditions: for Papp at 2 µg/mL: concentration 2 µg/mL; for Papp at 4 µg/mL: concentration 4 µg/mL
Description: The skin-PAMPA (parallel artificial membrane permeability assay) method was used, as described previously, to determine the permeability of the tested usnic acid enantiomers. The model consists of a two-chamber PAMPA sandwich, with 96 wells each. Before the experiment, the top plate, with the lipid-impregnated skin-mimetic membrane, was hydrated overnight with the hydration solution (200 µL per well). The tested substances were added at concentrations of 2 and 4 µg/mL. Each experiment was repeated at least three times, using six replicates on each plate, and the results were presented as mean ± SD. The amount of permeated active compounds was determined by spectroscopic analysis (Multiskan GO microplate reader, Thermo Scientific MaxQ 4450, Waltham, MA, USA), with a wavelength of 290 nm. For the calibration curve, stock solutions in the range of 12.5–150 µg/mL were prepared.
The apparent permeability coefficients (Papp) were calculated using the following equation:(1) Papp=−ln(1−CA/Cequilibrium)/S×(1/VD+1/VA)×t where VD = donor volume, VA = acceptor volume, Cequilibrium = equilibrium concentration, Cequilibrium=CD×VD+CA×VA/VD+VA , CD = donor concentration, CA = acceptor concentration, S = membrane area, and t = incubation time (in seconds). Compounds with Papp < 1 × 10^−6 cm/s are classified as having low permeability, and those with Papp > 1 × 10^−6 cm/s as highly permeable compounds.

[2] = Ultraviolet spectroscopy in ethanol solutions; format: physicochemical; conditions: ethanol solution; for E1.1 (λmax): extinction at 1 cm path length and 1% concentration; for ‹E1.1mean›: mean specific extinction 290 to 400 nm
Description: Spectra with a scan range of 250–400 nm were recorded in 30 µM ethanol solutions, in 1 cm path length, with 1.5 mL quartz cuvettes on a U-2800 double-beam spectrophotometer (Hitachi, Tokyo, Japan) controlled using UV Solution version 2.2 software. The molar extinction coefficient at maximum absorption (εmax) of the tested compounds was determined in ethanol as the slope of the linear regression of absorbance vs. the concentration of the tested compound (from 10 to 50 µM). The E1,1 coefficient was calculated using the formula: E1,1=ε[L/mol cm]× 10[g/L]/Mg/mol] × 1[cm] where ‹E1,1›mean value is a mean value of the specific extinction over the spectral range from 290 to 400 nm.

fibroblasts = tested on: fibroblasts; set-up: method as in PMID 28095330; conditions: previous study; cited from earlier work
HDF cells = tested on: HDF cells; set-up: method as in PMID 31282672; conditions: cited from earlier work
[3] = set-up: method as in PMID 24238180; conditions: cited from earlier work
HaCaT cells = conditions: cited from earlier work
HEM cells = tested on: HEM cells; set-up: method as in PMID 32092663; conditions: cited from earlier work
[4] = set-up: method as in PMID 28704942; conditions: different test for the evaluation; cited from earlier work
irradiated guinea pigs = tested on: irradiated guinea pigs; set-up: method as in earlier work; conditions: cited from earlier work
human volunteers = tested on: human volunteers; set-up: method as in PMID 12468208; conditions: versus reference Nivea sun spray (SPF 5); cited from earlier work
[5] = set-up: method as in doi:10.1016/S1010-6030(98)00368-2; conditions: three-week exposure, 12 h/day natural sunlight + 12 h/day incubator with light source; cited from earlier work
[6] = tested on: HaCaT human skin keratinocytes; experiment: LDH viability test, HaCaT keratinocytes; format: cell-based
Description: (§1) Normal human skin keratinocytes (HaCaT), melanocytes (HEM), and fibroblasts (HDF) were grown at 37 °C in a 5% CO2 atmosphere, with relative humidity, on high-glucose DMEM (HaCaT, HDF), or melanocyte growth medium (HEM), supplemented with 10% fetal bovine serum (FBS) and antibiotics. Before the experiment, cells were seeded onto 96-well plates (1.5 × 10^4 cells/well) for 24 h. Then, the culture medium was replaced with the same medium, containing 2–100 µg/mL of the tested substances, and incubated for 24, 48, or 72 h. LDH release was measured as described previously. Briefly, a proper quantity of a reagent mixture was added to the cell supernatants, and after 30 min the absorbance was measured at 490 nm (the reference wavelength 600 nm) with a BioTek Synergy microplate reader (BioTek Instruments Inc., Winooski, VT, USA). Cytotoxicity was calculated as follows: ((Asample − Acontrol)/(Ama − Acontrol)) × 100; where Asample = the absorbance value for the cells incubated with the tested substances., Acontrol = the absorbance value for untreated, control cells (spontaneous LDH release), and Amax = the absorbance value in Triton-X100-lysed cells (maximum LDH release).
(§2) Each experiment was performed in triplicate, and the results were presented as mean ± SD.

[7] = tested on: Human epidermal melanocytes (HEM); experiment: LDH viability test, HEM melanocytes; format: cell-based; conditions: Melanocyte, HEM melanocytes (remaining cell lines)
Description: as §1, §2

dermal fibroblasts (HDF) = experiment: LDH viability test, HDF fibroblasts; format: cell-based; conditions: Homo sapiens, Fibroblast, HDF fibroblasts (remaining cell lines)
Description: as §1, §2

CC(=O)C1=C(O)C=C2Oc3c(C(C)=O)c(O)c(C)c(O)c3[C@@]2(C)C1=O [(+)-usnic acid]
Papp at 2 µg/mL [1]: 7.53 ± 1.25 ×10⁻⁶ cm/s
Papp at 4 µg/mL [1]: 7.9 ± 0.65 ×10⁻⁶ cm/s
εmax [2]: 21 120 M^−1 cm^−1
λmax [2]: 281 nm
E1.1 (λmax) [2]: 613
‹E1.1mean› [2]: 76
IC50 (fibroblasts): > 40 µg/mL
IC50 (HDF cells; conversion of > 10 µM): about 3.5 µg/mL
IC50 (HDF cells; read-out: IC50): > 10 µM

dimethicodiethylbenzalmalonate
E1,1 value [3]: ~ 150

CCCCC(CC)COC(=O)C(C#N)=C(c1ccccc1)c1ccccc1 (centres unmarked) [octocrylene, 2-ethylhexyl 2-cyano-3,3-diphenylacrylate, reference compound]
εmax [2]: 13 650 M^−1 cm^−1
λmax [2]: 302 nm
E1.1 (λmax) [2]: 378
‹E1.1mean› [2]: 141

CC(=O)c1c(O)c(C)c(O)c2c1OC1=CC(=O)C(C(C)=O)C(=O)C12C (centres unmarked) [usnic acid, 2,6-diacetyl-7,9-dihydroxy-8,9b-dimethyl-1,3(2H,9bH)-dibenzofurandione]
IC50 (HaCaT cells; conversion of the µM value): about 64 µg/mL
IC50 (HaCaT cells; read-out: IC50): 186 ± 4.8 µM
IC50 (HEM cells; conversion of the µM value): about 2.4 µg/mL
IC50 (HEM cells; read-out: IC50): 6.9 µM
PF UVA [4]: 1.8
SPF [4]: 3.9
SPF as compared to the reference (homosalate) (irradiated guinea pigs): two times higher
effectiveness in sun protection (human volunteers): comparable to a reference Nivea sun spray
stability of methanol solution exposed to light [5]: wholly degraded

CC(=O)C1=C(O)C=C2Oc3c(C(C)=O)c(O)c(C)c(O)c3[C@]2(C)C1=O [(−)-usnic acid]
Papp at 2 µg/mL [1]: 7.46 ± 1.12 ×10⁻⁶ cm/s
Papp at 4 µg/mL [1]: 8.28 ± 1.33 ×10⁻⁶ cm/s
IC50 ([6]; 48 h): 80.8 µg/mL
IC50 ([6]; 72 h): 70.1 µg/mL
IC50 [7]: > 100 µg/mL
IC50 (dermal fibroblasts (HDF)): > 100 µg/mL
